Laboratory results as given in patent US11654198B2, “Application of combination of polyethylene glycol and local anesthetic in non-narcotic analgesia” (JENKEM TECHNOLOGY CO., LTD. (TIANJIN), priority 2016, dated 2023).
Blank lines part the entries; values can stand above or below the compound they belong to.

Assays:
SD rats [1] = experiment: Motor block four-level score, rat plantar incision model (Example 31); type: in vivo; parameters: key to motor function score: 1 = normal paw movement to 4 = complete loss of movement with gait defect; conditions: for motor function score: bupivacaine 8, conjugate 10/11/12 32/24/48 mg/kg; for effect on motor function of SD rats: conjugate 10/11/12 at 32/24/48 mg/kg
Experimental: After SD rats inhale anesthesia (isoflurane), an incision of about 1 cm in length from the proximal end of the pelma to the toe is made: after the skin and fascia are cut, the plantar muscle is picked up with an ophthalmic forceps and cut longitudinally (maintaining the starting and ending point and attachment of muscles); pressing is carried out for hemostasis, physiological saline and test drugs are injected into the muscles of animal's legs, and then the pain threshold detection is performed by the hot plate method. Within 24 hours after the model is successful, the rats develop significant hyperalgesia. Qualified rats are randomly divided into 5 groups, 6 rats in each group, which are labeled as groups G1, G2, G3, G4 and G5, respectively. The plantar subcutaneous injection method for administration is used, and the grouping information of the experimental animals is shown in Table 8.
Motor block (four-level score): The exercise condition of each group of rats is evaluated by the motor block four-level scoring method. The scoring criteria are: paws can be dorsiflexed, stretched, valgus and other normal exercises, scored by 1 point; paws can be dorsiflexed, bendable or after the adduction, although the paws can be stretched, the stretching ability is weakened, scored by 2 points; the paws can perform dorsiflexion, but no longer has the ability to stretch, scored by 3 points; the paws completely lose the ability of dorsiflexion, curling and stretching, and the rats produce a gait defect, scored by 4 points. The time point for measuring the motor block score is before administration, and 0.5 h, 1 h, 2 h, 4 h, 6 h, 8 h, 12 h, and 24 h after administration.

SD rats [2] = experiment: Hot plate paw withdrawal time, rat sciatica model, intervertebral disc compression (SNL) (Example 32); type: in vivo; conditions: for time the analgesic effect can reach: conjugate 10/11/12 at 32/24/48 mg/kg
Text: Intervertebral disc compression (SNL): This model is a pathological form that simulates clinical disc herniation. The specific method is to remove the autogenous caudal intervertebral disc tissue (annulus fibrosus and nucleus pulposus) form the rats and place the caudal intervertebral disc tissue between the proximal nerve root of the L5 dorsal root ganglion and the lower vertebral body to directly compress the L5 nerve root, wherein damage to the L5 nerve root or dorsal root ganglion should be avoided during the operation. 3 to 15 days after the model is successful, rats develop significant hyperalgesia, so the administration time we chose is between 3 days and 15 days.
Qualified rats are randomly divided into 5 groups, 6 rats in each group, which are labeled as groups G1, G2, G3, G4 and G5, respectively. Administration by intramuscular injection around sciatic nerve is adopted, and the grouping information of the experimental animals is shown in Table 11.
(§1) Sensory block (hot plate paw withdrawal time): The sensory block of the rat is examined by a hot plate method, and the hot plate is heated to (56±1)° C., and one of the hind paws of the rat is placed on the hot plate, the other hind paw is in the laboratory room temperature condition, and the tested paw withdrawal time is observed and recorded. The average value of two to three times measured is recorded as a pain threshold. In order to avoid the damage of the experimental animal body, if the rat has no paw withdrawal in the hot plate experiment for more than 15 s, the paws should be removed from the hot plate, and the experimental result is recorded as 15 s. The time point for determining the withdrawal time of the hot plate is before administration, and 0.5 h, 1 h, 2 h, 4 h, 6 h, 8 h, 12 h, and 24 h after administration.

SD rats [3] = experiment: Sensory block, hot plate paw withdrawal time, non-anesthetic analgesic effect of PEG-bupivacaine conjugate (Example 30); type: in vivo, rat; conditions: for hot plate paw withdrawal time: conjugate 10/11/12 at 32/24/48 mg/kg (as bupivacaine); for time the analgesic effect could reach: conjugate 10 at 32 mg/kg, conjugate 11 at 24 mg/kg; for time after administration at which hot plate paw withdrawal time is significantly higher than vehicle group: conjugate 10/11/12 at 32/24/48 mg/kg, direct injection
Experimental: Male Sprague-Dawley rats are used in the study, about 230-250 g when accepted, and acclimated for at least 7 days prior to the experiment. Two rats are raised in each cage and fed freely with feed and water. The environmental conditions of the breeding room are 23±2° C., and the relative humidity is 40% to 70%, alternating 12 hours of light and dark. […] The qualified rats are randomly divided into 4 groups, 4 rats in each group, which are labeled as groups G1, G2, G3, and G4, respectively. Administration by direct injection in the sciatic nerve is adopted, and with the rat's back facing up, the drug is injected around the right sciatic nerve trunk between the right hip and the right thigh.
as §1, with “the hot plate. The other hind” for “the hot plate, the other hind”, “s, the rat should be” for “s, the paws should be”, “determining the paw withdrawal time” for “determining the withdrawal time”, “8 h, 10 h, 12 h,” for “8 h, 12 h,”

[4] = 0 h (after surgery, before administration), bupivacaine 8, conjugate 10/11/12 32/24/48 mg/kg
[5] = 0.5 h after intramuscular injection around sciatic nerve, bupivacaine 8, conjugate 10/11/12 32/24/48 mg/kg
[6] = 1 h after intramuscular injection around sciatic nerve, bupivacaine 8, conjugate 10/11/12 32/24/48 mg/kg
[7] = 2 h after intramuscular injection around sciatic nerve, bupivacaine 8, conjugate 10/11/12 32/24/48 mg/kg
[8] = 4 h after intramuscular injection around sciatic nerve, bupivacaine 8, conjugate 10/11/12 32/24/48 mg/kg
[9] = 6 h after intramuscular injection around sciatic nerve, bupivacaine 8, conjugate 10/11/12 32/24/48 mg/kg
[10] = 8 h after intramuscular injection around sciatic nerve, bupivacaine 8, conjugate 10/11/12 32/24/48 mg/kg
[11] = 12 h after intramuscular injection around sciatic nerve, bupivacaine 8, conjugate 10/11/12 32/24/48 mg/kg
[12] = 24 h after intramuscular injection around sciatic nerve, bupivacaine 8, conjugate 10/11/12 32/24/48 mg/kg
[13] = before surgery, bupivacaine 8, conjugate 10/11/12 32/24/48 mg/kg (as bupivacaine)
[14] = 0.5 h after direct injection around sciatic nerve
[15] = 2 h after direct injection around sciatic nerve
[16] = 4 h after direct injection around sciatic nerve
[17] = 6 h after direct injection around sciatic nerve
[18] = 8 h after direct injection around sciatic nerve
[19] = 10 h after direct injection around sciatic nerve
[20] = 12 h after direct injection around sciatic nerve
[21] = 24 h after direct injection around sciatic nerve
[22] = l h after direct injection around sciatic nerve
[23] = bupivacaine 8, conjugate 10/11/12 32/24/48 mg/kg

Compound: 8-Arm-PEG-Bupivacaine, 20K [bupivacaine conjugate 10]
motor function score (SD rats [1]; 0 h (before administration)): 1 ± 0 | motor function score (SD rats [1]; 0.5 h): 1 ± 0 | motor function score (SD rats [1]; 1 h): 1.75 ± 0.5 | motor function score (SD rats [1]; 2 h): 1.75 ± 0.5 | motor function score (SD rats [1]; 4 h): 1.75 ± 0.5 | motor function score (SD rats [1]; 6 h): 1.75 ± 0.5 | motor function score (SD rats [1]; 8 h): 1.75 ± 0.5 | motor function score (SD rats [1]; 12 h): 1 ± 0 | motor function score (SD rats [1]; 24 h): 1 ± 0 | effect on motor function of SD rats (SD rats [1]): does not affect the motor function | hot plate paw withdrawal time (SD rats [2]; [4]): 2.41 s | hot plate paw withdrawal time (SD rats [2]; [5]): 6.52 s | hot plate paw withdrawal time (SD rats [2]; [6]): 10.12 s | hot plate paw withdrawal time (SD rats [2]; [7]): 11.43 s | hot plate paw withdrawal time (SD rats [2]; [8]): 9.83 s | hot plate paw withdrawal time (SD rats [2]; [9]): 8.10 s | hot plate paw withdrawal time (SD rats [2]; [10]): 6.91 s | hot plate paw withdrawal time (SD rats [2]; [11]): 1.96 s | hot plate paw withdrawal time (SD rats [2]; [12]): 2.18 s | hot plate paw withdrawal time (SD rats [2]; [13]): 4.98 s | time the analgesic effect can reach (SD rats [2]): 8 h | hot plate paw withdrawal time (SD rats [3]; [14]): 11.85 s | hot plate paw withdrawal time (SD rats [3]; [15]): 8.91 s | hot plate paw withdrawal time (SD rats [3]; [16]): 10.74 s | hot plate paw withdrawal time (SD rats [3]; [17]): 11.92 s | hot plate paw withdrawal time (SD rats [3]; [18]): 8.49 s | hot plate paw withdrawal time (SD rats [3]; [19]): 6.64 s | hot plate paw withdrawal time (SD rats [3]; [20]): 3.82 s | hot plate paw withdrawal time (SD rats [3]; [21]): 3.81 s | time the analgesic effect could reach (SD rats [3]): 8 h | hot plate paw withdrawal time (SD rats [3]; [22]): 11.98 s

Compound: 8-Arm-PEG-Bupivacaine, 20K [bupivacaine conjugate 11]
motor function score (SD rats [1]; 0 h (before administration)): 1 ± 0 | motor function score (SD rats [1]; 0.5 h): 1 ± 0 | motor function score (SD rats [1]; 1 h): 1 ± 0 | motor function score (SD rats [1]; 2 h): 1 ± 0 | motor function score (SD rats [1]; 4 h): 1 ± 0 | motor function score (SD rats [1]; 6 h): 1 ± 0 | motor function score (SD rats [1]; 8 h): 1 ± 0 | motor function score (SD rats [1]; 12 h): 1 ± 0 | motor function score (SD rats [1]; 24 h): 1 ± 0 | effect on motor function of SD rats (SD rats [1]): does not affect the motor function | hot plate paw withdrawal time (SD rats [2]; [4]): 2.14 s | hot plate paw withdrawal time (SD rats [2]; [5]): 7.43 s | hot plate paw withdrawal time (SD rats [2]; [6]): 8.49 s | hot plate paw withdrawal time (SD rats [2]; [7]): 9.10 s | hot plate paw withdrawal time (SD rats [2]; [8]): 8.31 s | hot plate paw withdrawal time (SD rats [2]; [9]): 7.10 s | hot plate paw withdrawal time (SD rats [2]; [10]): 1.97 s | hot plate paw withdrawal time (SD rats [2]; [11]): 2.71 s | hot plate paw withdrawal time (SD rats [2]; [12]): 2.76 s | hot plate paw withdrawal time (SD rats [2]; [13]): 5.15 s | time after administration at which hot plate paw withdrawal time is significantly higher than vehicle group (SD rats [2]; [23]): ≤ 6 h | time the analgesic effect can reach (SD rats [2]): ≥ 6 h | hot plate paw withdrawal time (SD rats [3]; [14]): 9.60 s | hot plate paw withdrawal time (SD rats [3]; [15]): 5.02 s | hot plate paw withdrawal time (SD rats [3]; [16]): 6.65 s | hot plate paw withdrawal time (SD rats [3]; [17]): 6.44 s | hot plate paw withdrawal time (SD rats [3]; [18]): 3.69 s | hot plate paw withdrawal time (SD rats [3]; [19]): 3.24 s | hot plate paw withdrawal time (SD rats [3]; [20]): 2.62 s | hot plate paw withdrawal time (SD rats [3]; [21]): 3.77 s | time after administration at which hot plate paw withdrawal time is significantly higher than vehicle group (SD rats [3]): ≤ 6 h | time the analgesic effect could reach (SD rats [3]): 6 h | hot plate paw withdrawal time (SD rats [3]; [22]): 9.99 s

motor function score (SD rats [1]; 0 h (before administration)): 1 ± 0 | motor function score (SD rats [1]; 0.5 h): 1 ± 0 | motor function score (SD rats [1]; 1 h): 1.75 ± 0.5 | motor function score (SD rats [1]; 2 h): 1.75 ± 0.5 | motor function score (SD rats [1]; 4 h): 1.75 ± 0.5 | motor function score (SD rats [1]; 6 h): 1.75 ± 0.5 | motor function score (SD rats [1]; 8 h): 1.75 ± 0.5 | motor function score (SD rats [1]; 12 h): 1 ± 0 | motor function score (SD rats [1]; 24 h): 1 ± 0
Compound: CCCCN1CCCCC1C(=O)Nc1c(C)cccc1C (stereo not shown) [bupivacaine]
hot plate paw withdrawal time (SD rats [2]; [4]): 2.28 s | hot plate paw withdrawal time (SD rats [2]; [5]): 7.39 s | hot plate paw withdrawal time (SD rats [2]; [6]): 9.22 s | hot plate paw withdrawal time (SD rats [2]; [7]): 2.81 s | hot plate paw withdrawal time (SD rats [2]; [8]): 1.89 s | hot plate paw withdrawal time (SD rats [2]; [9]): 1.78 s | hot plate paw withdrawal time (SD rats [2]; [10]): 1.95 s | hot plate paw withdrawal time (SD rats [2]; [11]): 2.43 s | hot plate paw withdrawal time (SD rats [2]; [12]): 1.72 s | hot plate paw withdrawal time (SD rats [2]; [13]): 5.40 s

Compound: 8-Arm-PEG-Bupivacaine, 20K [bupivacaine conjugate 12]
motor function score (SD rats [1]; 0 h (before administration)): 1 ± 0 | motor function score (SD rats [1]; 0.5 h): 1 ± 0 | motor function score (SD rats [1]; 1 h): 1 ± 0 | motor function score (SD rats [1]; 2 h): 1 ± 0 | motor function score (SD rats [1]; 4 h): 1 ± 0 | motor function score (SD rats [1]; 6 h): 1 ± 0 | motor function score (SD rats [1]; 8 h): 1 ± 0 | motor function score (SD rats [1]; 12 h): 1 ± 0 | motor function score (SD rats [1]; 24 h): 1 ± 0 | effect on motor function of SD rats (SD rats [1]): does not affect the motor function | hot plate paw withdrawal time (SD rats [2]; [4]): 1.89 s | hot plate paw withdrawal time (SD rats [2]; [5]): 8.13 s | hot plate paw withdrawal time (SD rats [2]; [6]): 7.21 s | hot plate paw withdrawal time (SD rats [2]; [7]): 6.12 s | hot plate paw withdrawal time (SD rats [2]; [8]): 2.98 s | hot plate paw withdrawal time (SD rats [2]; [9]): 2.91 s | hot plate paw withdrawal time (SD rats [2]; [10]): 2.18 s | hot plate paw withdrawal time (SD rats [2]; [11]): 1.85 s | hot plate paw withdrawal time (SD rats [2]; [12]): 2.56 s | hot plate paw withdrawal time (SD rats [2]; [13]): 5.51 s | time after administration at which hot plate paw withdrawal time is significantly higher than vehicle group (SD rats [2]; [23]): ≤ 2 h | time the analgesic effect can reach (SD rats [2]): 2 h | hot plate paw withdrawal time (SD rats [3]; [14]): 6.49 s | hot plate paw withdrawal time (SD rats [3]; [15]): 3.52 s | hot plate paw withdrawal time (SD rats [3]; [16]): 4.82 s | hot plate paw withdrawal time (SD rats [3]; [17]): 4.59 s | hot plate paw withdrawal time (SD rats [3]; [18]): 4.34 s | hot plate paw withdrawal time (SD rats [3]; [19]): 4.30 s | hot plate paw withdrawal time (SD rats [3]; [20]): 2.80 s | hot plate paw withdrawal time (SD rats [3]; [21]): 3.25 s | time after administration at which hot plate paw withdrawal time is significantly higher than vehicle group (SD rats [3]): ≤ 2 h | hot plate paw withdrawal time (SD rats [3]; [22]): 6.77 s
